Patent publication US11014884B2 (Global Blood Therapeutics, Inc., priority 2018, dated 2021)

Target: Purified hemoglobin (Homo sapiens, UniProt P69905)
Test: Hemoglobin assay: oxygen equilibrium curves with purified hemoglobin, change in p50
Assay type: biochemical
Conditions: purified hemoglobin 25 μM, compound 25 μM, 1 h at 37° C.
Method: Hemoglobin assay: Oxygen equilibrium curves (OECs) were collected as described above. Purified hemoglobin (25 μM) was incubated for 1 h at 37° C. with the indicated compounds (30 μM for compounds 6, 7, 8, and 11; 25 μM for compounds 55 to 67 (Enantiomer 1 and Enantiomer 2)) in 5 ml of TES (2-[[1,3-dihydroxy-2-(hydroxymethyl)propan-2-yl]amino]ethanesulfonic acid)/saline buffer prior to measurements. The samples were then oxygenated with compressed air within the Hemox Analyzer and the OECs were collected during deoxygenation as previously described. p50 values were obtained using a non-linear regression analysis, and Δp50(%) was calculated as described above.

Sequence of Purified hemoglobin (P69905 2-142 limits assumed): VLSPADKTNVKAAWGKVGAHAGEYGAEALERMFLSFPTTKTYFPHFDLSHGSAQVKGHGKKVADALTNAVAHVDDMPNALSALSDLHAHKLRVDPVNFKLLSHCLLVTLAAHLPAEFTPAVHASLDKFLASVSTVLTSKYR
Sequence of Purified hemoglobin (P68871 2-147 partner limits assumed): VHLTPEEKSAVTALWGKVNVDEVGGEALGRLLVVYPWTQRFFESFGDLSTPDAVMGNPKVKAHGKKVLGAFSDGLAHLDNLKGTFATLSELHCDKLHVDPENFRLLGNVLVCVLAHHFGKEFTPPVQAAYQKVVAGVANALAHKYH

SMILES	Delta-p50 (%)
O=Cc1c(O)cccc1CN1C(=O)CCCC1COc1cccc(O)c1C=O (racemic) [Compound 66, 2-((1-(2-formyl-3-hydroxybenzyl)-6-oxopiperidin-2-yl)methoxy)-6-hydroxybenzaldehyde]	71
O=Cc1c(O)cccc1OCC1CSCCN1C(=O)c1cccc(O)c1C=O (single isomer, unassigned) [67 (Enantiomer 1), 2-((4-(2-formyl-3-hydroxybenozyl)thiomorpholin-3-yl)methoxy)-6-hydroxybenzaldehyde]	67.2
O=Cc1c(O)cccc1OCC1CSCCN1C(=O)c1cccc(O)c1C=O (single isomer, unassigned) [67 (Enantiomer 2), 2-((4-(2-formyl-3-hydroxybenzoyl)thiomorpholin-3-yl)methoxy)-6-hydroxybenzaldehyde]	69.3
CC1(C)CN(C(=O)c2cccc(O)c2C=O)C(COc2cccc(O)c2C=O)CO1 (stereo in doubt) [Compound 64]	67
O=Cc1ccccc1OC[C@@H]1CCCCN1C(=O)c1cccc(O)c1C=O [Compound 55, (S)-2-(2-((2-formylphenoxy)methyl)piperidine-1-carbonyl)-6-hydroxybenzaldehyde]	71
O=Cc1ccccc1OC[C@@H]1COCCN1C(=O)c1cccc(O)c1C=O [Compound 56, (S)-2-(3-((2-formylphenoxy)methyl)morpholine-4-carbonyl)-6-hydroxybenzaldehyde]	70
COc1ccc(C(=O)N2CCCC[C@H]2COc2cccc(O)c2C=O)c(C=O)c1O [Compound 57, (S)-6-(2-((2-formyl-3-hydroxyphenoxy)methyl)piperidine-1-carbonyl)-2-hydroxy-3-methoxybenzaldehyde]	71
O=Cc1cccc(C(=O)N2CCC[C@@H](COc3cccc(O)c3C=O)C2)c1O [Compound 58]	71
O=Cc1c(O)cccc1OC[C@H]1CN(C(=O)c2cccc(O)c2C=O)CCO1 [Compound 59, 2-[[(2R)-4-(2-formyl-3-hydroxybenzoyl)morpholin-2-yl]methoxy]-6-hydroxybenzaldehyde]	71
CC1CN(C(=O)c2cccc(O)c2C=O)C(COc2cccc(O)c2C=O)CO1 (stereo not shown) [Compound 60, 2-((4-(2-formyl-3-hydroxybenzoyl)-6-methylmorpholin-3-yl)methoxy)-6-hydroxybenzaldehyde]	67
O=Cc1cc(C(=O)N2CCC[C@@H](COc3cccc(O)c3C=O)C2)ccc1O [Compound 61, 2-[[(3R)-1-(3-formyl-4-hydroxybenzoyl)piperidin-3-yl]methoxy]-6-hydroxybenzaldehyde]	71
O=Cc1c(O)cccc1OC[C@H]1CN(C(=O)c2cccc(O)c2C=O)CCO1 [Compound 62, 2-[[(2R)-4-(2-formyl-3-hydroxybenzoyl)morpholin-2-yl]methoxy]-6-hydroxybenzaldehyde]	69
O=Cc1c(O)cccc1OC[C@@H]1CCCN(C(=O)Oc2cccc(O)c2C=O)C1 [Compound 63, 2-formyl-3-hydroxyphenyl (3R)-3-(2-formyl-3-hydroxyphenoxymethyl)piperidine-1-carboxylate]	70
CC1(C)C[C@@H](COc2cccc(O)c2C=O)N(C(=O)c2cccc(O)c2C=O)C1 [Compound 65, 2-[[(2S)-1-(2-formyl-3-hydroxybenzoyl)-4,4-dimethylpyrrolidin-2-yl]methoxy]-6-hydroxybenzaldehyde]	69

Same assay, conditions: purified hemoglobin 25 μM, compound 30 μM, 1 h at 37° C.

SMILES	Delta-p50 (%)
COc1ccc(C=O)cc1-c1ncccc1COc1cccc(O)c1C=O [Compound 6, 3-{3-[(2-formyl-3-hydroxyphenoxy)methyl]pyridin-2-yl}-4-methoxybenzaldehyde]	60.66
COc1ncc(C=O)cc1-c1ncccc1COc1cccc(O)c1C=O [Compound 7, 3-[(2-formyl-3-hydroxyphenoxy)methyl]-2′-methoxy-[2,3′-bipyridine]-5′-carbaldehyde]	58.29
O=Cc1cccc(-c2ncccc2COc2cccc(O)c2C=O)c1 [Compound 8, 3-{3-[(2-formyl-3-hydroxyphenoxy)methyl]pyridin-2-yl}benzaldehyde]	57.3

Target: T1, hemoglobin (Homo sapiens, UniProt P69905)
T1 construct: from tissue; host or cells: whole blood (red blood cells)
T1 sequence (P69905 2-142 limits assumed): as the sequence (P69905 2-142 limits assumed) above
T1 sequence (P68871 2-147 partner limits assumed): as the sequence (P68871 2-147 partner limits assumed) above
Test: Whole blood assay: oxygen equilibrium curves (Hemox Analyzer), change in p50
Assay type: cell-based
Conditions: whole blood 20% Hct (1 mM Hb), compound 1 mM, equimolar to hemoglobin, 1 h at 37° C.
Method: Oxygen equilibrium curves (OECs) were collected using a TCS Hemox Analyzer (TCS Scientific Company, New Hope, Pa., USA) to measure changes in the binding affinity of 02 to Hb. Whole blood was incubated for 1 h at 37° C. with the indicated compounds in an equimolar ratio of hemoglobin to compound and diluted into TES (2-[[1,3-dihydroxy-2-(hydroxymethyl)propan-2-yl]amino]ethanesulfonic acid)/saline buffer prior to measurements. For example, for whole blood at 20% hematocrit [Hct], which corresponds to 1 mM Hb, a compound concentration of 1 mM was used (for example, for compounds 1-53), and the incubated sample diluted 50- to 100-fold. The concentration for compound 54 was 1.7 mM and in equimolar ratio to hemoglobin. The diluted samples were then oxygenated with compressed air within the Hemox Analyzer, and the OECs were collected during deoxygenation as previously described (Guarnone et al., Haematologica, 1995, 80, 426-430). p50 (partial pressure of 02 at which Hb is 50% saturated with 02) values were obtained using a non-linear regression analysis. Percentage change in p50 [Δp50(%)] was calculated as follows: Δp50(%)=[(p50 of control)−p50 with compound)/p50 control]×100.

SMILES	Delta-p50 (%)
COc1ccc(C=O)cc1-c1ncccc1COc1cccc(O)c1C=O [Compound 6, 3-{3-[(2-formyl-3-hydroxyphenoxy)methyl]pyridin-2-yl}-4-methoxybenzaldehyde]	16.7
COc1ncc(C=O)cc1-c1ncccc1COc1cccc(O)c1C=O [Compound 7, 3-[(2-formyl-3-hydroxyphenoxy)methyl]-2′-methoxy-[2,3′-bipyridine]-5′-carbaldehyde]	32.5
O=Cc1cccc(-c2ncccc2COc2cccc(O)c2C=O)c1 [Compound 8, 3-{3-[(2-formyl-3-hydroxyphenoxy)methyl]pyridin-2-yl}benzaldehyde]	44.8
O=Cc1ccccc1C(=O)N1CCCCC[C@H]1COc1cccc(O)c1C=O [Compound 37]	31.5
CCOc1cccc(C(=O)N2CCCC[C@H]2COc2cccc(O)c2C=O)c1C=O [Compound 39, 2-ethoxy-6-[(2S)-2-[(2-formyl-3-hydroxyphenoxy)methyl]piperidine-1-carbonyl]benzaldehyde]	79.5
CC(C)Oc1cccc(C(=O)N2CCCC[C@H]2COc2cccc(O)c2C=O)c1C=O [Compound 40, 2-[(2S)-2-[(2-formyl-3-hydroxyphenoxy)methyl]piperidine-1-carbonyl]-6-(propan-2-yloxy)benzaldehyde]	72.5
Cc1ccc(-c2ncccc2COc2cccc(O)c2C=O)nc1C=O [Compound 41, 3′-[(2-formyl-3-hydroxyphenoxy)methyl]-5-methyl-[2,2′-bipyridine]-6-carbaldehyde]	29.1
O=Cc1cccc(-c2ccncc2COc2cccc(O)c2C=O)n1 [Compound 42, 3′-[(2-formyl-3-hydroxyphenoxy)methyl]-[2,4′-bipyridine]-6-carbaldehyde]	17.4
CC1(C)C[C@@H](COc2cccc(O)c2C=O)N(C(=O)c2ccccc2C=O)C1 [Compound 43, 2-{[(2S)-1-(2-formylbenzoyl)-4,4-dimethylpyrrolidin-2-yl]methoxy}-6-hydroxybenzaldehyde]	70
O=Cc1c(O)cccc1C(=O)N1CCCC[C@H]1COc1ccc2c(c1C=O)CCO2 [Compound 44, 5-{[(2S)-1-(2-formyl-3-hydroxybenzoyl)piperidin-2-yl]methoxy}-2,3-dihydro-1-benzofuran-4-carbaldehyde]	34.2
CCOc1ccc(-c2ncccc2COc2cccc(O)c2C=O)nc1C=O [Compound 45, 5-ethoxy-3′-[(2-formyl-3-hydroxyphenoxy)methyl]-[2,2′-bipyridine]-6-carbaldehyde]	55.7
Cc1cccc(C(=O)N2CCCC[C@@H]2COc2cccc(O)c2C=O)c1C=O [Compound 46, 2-[(2R)-2-[(2-formyl-3-hydroxyphenoxy)methyl]piperidine-1-carbonyl]-6-methylbenzaldehyde]	69
O=Cc1c(O)cccc1OC[C@@H]1CCCCN1C(=O)c1cccc(F)c1C=O [Compound 47, 2-fluoro-6-[(2S)-2-[(2-formyl-3-hydroxyphenoxy)methyl]piperidine-1-carbonyl]benzaldehyde]	70
COc1cccc(C(=O)N2CCOC[C@H]2COc2cccc(O)c2C=O)c1C=O [Compound 48, 2-[(3S)-3-[(2-formyl-3-hydroxyphenoxy)methyl]morpholine-4-carbonyl]-6-methoxybenzaldehyde]	70.3
COc1cccc(C(=O)N2CCCC[C@@H]2COc2cccc(O)c2C=O)c1C=O [Compound 49, 2-[(2R)-2-[(2-formyl-3-hydroxyphenoxy)methyl]piperidine-1-carbonyl]-6-methoxybenzaldehyde]	59
CCOc1cccc(C(=O)N2CCCC[C@@H]2COc2cccc(O)c2C=O)c1C=O [Compound 50, 2-ethoxy-6-[(2R)-2-[(2-formyl-3-hydroxyphenoxy)methyl]piperidine-1-carbonyl]benzaldehyde]	45.3
O=Cc1c(O)cccc1OC[C@@H]1CCCCN1C(=O)c1cccc(Cl)c1C=O [Compound 51, 2-chloro-6-[(2S)-2-[(2-formyl-3-hydroxyphenoxy)methyl]piperidine-1-carbonyl]benzaldehyde]	65.5
CCOc1cccc(C(=O)N2CCC[C@H]2COc2cccc(O)c2C=O)c1C=O [Compound 52, 2-ethoxy-6-[(2S)-2-[(2-formyl-3-hydroxyphenoxy)methyl]pyrrolidine-1-carbonyl]benzaldehyde]	75.5
O=Cc1cnccc1C(=O)N1CCCC[C@H]1COc1cccc(O)c1C=O [Compound 53, 4-[(2S)-2-[(2-formyl-3-hydroxyphenoxy)methyl]piperidine-1-carbonyl]pyridine-3-carbaldehyde]	71.9

Same assay, conditions: whole blood, compound 1.7 mM, equimolar to hemoglobin, 1 h at 37° C.

SMILES	Delta-p50 (%)
CC1(COc2cccc(O)c2C=O)COCCN1C(=O)c1cccc(O)c1C=O (stereo not shown) [Compound 54, 2-((4-(2-formyl-3-hydroxybenzoyl)-3-methylmorpholin-3-yl)methoxy)-6-hydroxybenzaldehyde]	72.6
